For 34 compounds, IC50 results are on record in patent US6197811A, “Cytokine production inhibitors” (Terragen Discovery Inc., priority 1998, dated 2001).

Molecules are shown by their SMILES. Some results are limits rather than exact numbers.

In the assay the test system is IL-1β production in human peripheral blood mononuclear cells (PBMC). Briefly: LPS-induced IL-1β release from human peripheral blood mononuclear cells (PBMC), ELISA. The class given is cell-based. The conditions noted are these: 1 ng/ml LPS, 18 hours at 37° C., IL-1β by ELISA. Here is the method:
IL-1 Release from Human Peripheral Blood Mononuclear Cells (PBMC)
Human peripheral blood mononuclear cells (PBMC) were separated from Buffy coats obtained from normal healthy donors on Lymphoprep. […] Cells were incubated for 18 hours at 37° C. with 5% CO2 and the cell culture supernatants harvested and stored at -70° C. Effects on the production of IL-1β were determined by using an ELISA.
(ELISA stands for enzyme-linked immunosorbent assay.)
The IC50 is the point on the concentration scale where inhibition reaches its midpoint. The low end stands for greater potency, the high end for weaker potency. `CCCCCC[C@H](C)/C=C(C)/C=C/C(=O)O[C@H]1C=CC(=O)O[C@H]1/C=C/C(=O)OCC` [Example 6, ((2S,3S)-3,6-Dihydro-6-oxo-(2E-3-oxo-3-ethoxyprop-1-enyl-2H-pyran-3-yl))-(2E,4E)-4,6-dimethyldodecadienoate]: 6000 nM corresponded to half-maximal inhibition (IC50).
For the compound `C/C=C/[C@@H]1OC(=O)C=C[C@@H]1OC(=O)/C=C/CCCCCCCCC` [Example 5, ((2S,3S)-3,6-Dihydro-6-oxo-(2E-prop-1-enyl-2H-pyran-3-yl))dodeca-2E-enoate], the IC50 came to 2800 nM.
For `C/C=C/[C@H]1OC(=O)C=C[C@@H]1NCc1ccc(-c2ccccc2)cc1` [Example 2b, (5S,6R)-5-(4-biphenylmethylamino)-6E-prop-1-ene-5,6-dihydro-2H-pyran-2-one] the value was 6900 nM; for `C/C=C/[C@@H]1OC(=O)C=C[C@H]1OC(=O)c1ccc2c(c1)C(=O)c1ccccc1-2` [Example 1b, ((2S,3R)-3,6-Dihydro-6-oxo-(2E-prop-1-enyl-2H-pyran-3-yl))-9-oxo-9H-fluorene carboxylate], 4500 nM; for `C/C=C/[C@@H]1OC(=O)C=C[C@@H]1OC(=O)c1cccc2c1Cc1ccccc1-2` [Example 5d, ((2S,3S)-3,6-Dihydro-6-oxo-(2E-prop-1-enyl-2H-pyran-3-yl))-9H-fluorenecarboxylate], 300 nM.
For `C/C=C/[C@@H]1OC(=O)C=C[C@H]1OC(=O)/C=C/C(C)=C/[C@@H](C)CCCCCC` [Example 4, ((2S,3R)-3,6-Dihydro-6-oxo-(2E-prop-1-enyl-2H-pyran-3-yl))-(2E,4E)-4,6-dimethyldodecanoate] the value was 4000 nM; for `C/C=C/[C@H]1OC(=O)C=C[C@@H]1NCC1c2ccccc2-c2ccccc21` [Example 2c, (5S,6R)-5-(2-9H-fluorenemethylamino)-6E-prop-1-ene-5,6-dihydro-2H-pyran-2-one], 3600 nM.
As for `C/C=C/[C@@H]1OC(=O)C=C[C@@H]1OCc1ccccc1` [Example 4c, (2S,3S)-5-Benzyloxy-6-(2E-prop-1-enyl)-5,6-dihydro-2H-pyran-2-one], the IC50 is 1200 nM.
The value for `C/C=C/[C@@H]1OC(=O)C=C[C@@H]1OC(=O)c1ccc(-c2ccccc2)cc1` [Example 5b, ((2S,3S)-3,6-Dihydro-6-oxo-(2E-prop-1-enyl-2H-pyran-3-yl))-4-biphenylcarboxylate] was 300 nM; that for `C/C=C/[C@@H]1OC(=O)C=C[C@@H]1OCOCCOC` [Example 4a, (2S,3S)-5-(2-Methoxy-ethoxymethoxy)-6-(2E-prop-1-enyl)-5,6-dihydro-2H-pyran-2-one] was 8500 nM.
For `C/C=C/[C@@H]1OC(=O)C=C[C@@H]1OC(=O)c1ccc(-c2ccc(CC)cc2)cc1` [Example 5c, ((2S,3S)-3,6-Dihydro-6-oxo-(2E-prop-1-enyl-2H-pyran-3-yl))-4'-ethyl-4-biphenylcarboxylate] the value was 100 nM.
The compound `C/C=C/[C@@H]1OC(=O)C=C[C@H]1NC(=O)c1ccc(-c2ccccc2)cc1` [Example 3c, ((2S,3R)-3,6-Dihydro-6-oxo-(2E-prop-1-enyl-2H-pyran-3-yl))-4-biphenylamide] came in with an IC50 of 1300 nM.
The value for `C/C=C/[C@@H]1OC(=O)C=C[C@H]1NC(=O)c1ccc(-c2ccccc2)cc1` [Example 3a, ((2S,3R) -3,6-Dihydro-6-oxo-(2E-prop-1-enyl-2H-pyran-3-yl) )4-biphenylamide] was 1000 nM.
The value for `CCCCCC[C@H](C)/C=C(C)/C=C/C(=O)O[C@H]1C=CC(=O)O[C@H]1/C=C/C(=O)OCCCC` [Example 6b, ((2S,3S)-3,6-Dihydro-6-oxo-(2E-3-oxo-3-butoxyprop-1-enyl)-2H-pyran-3-yl)-(2E,4E)-4,6-dimethyldodecadienoate] was 1400 nM; that for `C/C=C/[C@@H]1OC(=O)C=C[C@@H]1OCc1ccc(-c2ccccc2)cc1` [Example 4b, (2S,3S)-5-(4-Biphenylmethoxy)-6-(2E-prop-1-enyl)-5,6-dihydro-2H-pyran-2-one] was 400 nM.
In turn, `C/C=C/[C@@H]1OC(=O)C=C[C@H]1NC(=O)c1cccc2c1-c1ccccc1C2=O` [Example 3d, ((2S,3R)-3,6-Dihydro-6-oxo-(2E-prop-1-enyl-2H-pyran-3-yl))-9-oxo-9H-fluorene-4-amide] showed an IC50 of 11300 nM.
The value for `C/C=C/[C@@H]1OC(=O)C=C[C@@H]1OC(=O)CCCCCCCCCCCCC` [Example 5m, ((2S,3S)-3,6-Dihydro-6-oxo-(2E-prop-1-enyl-2H-20 pyran-3-yl))tetradodecanoate] was 5400 nM; that for `C/C=C/[C@H]1OC(=O)C=C[C@@H]1NCc1ccccc1` [Example 2a, (5S,6R)-5-benzylamino-6E-prop-1-ene-5,6-dihydro-2H-pyran-2-one] was 12000 nM.
For `C/C=C/[C@@H]1OC(=O)C=C[C@H]1NC(=O)c1ccccc1` [Example 3, ((2S,3R)-3,6-Dihydro-6-oxo-(2E-prop-1-enyl-2H-pyran-3-yl)) phenylamide] the value was 9700 nM.
`C/C=C/[C@@H]1OC(=O)C=C[C@H]1OC(=O)c1ccccc1` [Example 1, ((2S,3R)-3,6-Dihydro-6-oxo-(2E-prop-1-enyl-2H-pyran-3-yl)) benzoate]: the IC50 was found to be 2400 nM.
The value for `C/C=C/[C@@H]1OC(=O)C=C[C@@H]1OC(=O)/C=C/c1ccc2ccccc2c1` [Example 5j, ((2S,3S)-3,6-Dihydro-6-oxo-(2E-prop-1-enyl-2H-pyran-3-yl))-3-(2-naphthyl)acrylate] was 700 nM; that for `CCCCCC[C@H](C)/C=C(C)/C=C/C(=O)O[C@H]1C=CC(=O)O[C@H]1/C=C/C(=O)OCCC` [Example 6a, ((2S,3S)-3,6-Dihydro-6-oxo-(2E-3-oxo-3-propoxyprop-1-enyl)-2H-pyran-3-yl)-(2E,4E)-4,6-dimethyldodecadienoate] was 1400 nM.
For `C/C=C/[C@@H]1OC(=O)C=C[C@@H]1OC(=O)CCCCCCCCCCC` [Example 5l, ((2S,3S)-3,6-Dihydro-6-oxo-(2E-prop-1-enyl-2H-pyran-3-yl))dodecanoate] the value was 8400 nM; for `C/C=C/[C@@H]1OC(=O)C=C[C@@H]1OC(=O)c1ccc(CCCCC)cc1` [Example 5k, ((2S,3S)-3,6-Dihydro-6-oxo-(2E-prop-1-enyl-2H-pyran-3-yl))-4-pentylbenzoate], 400 nM; for `CCCCCC[C@H](C)/C=C(C)/C=C/C(=O)O[C@H]1C=CC(=O)O[C@H]1/C=C/C(=O)NCc1ccccc1` [Example 6c, ((2S,3S)-3,6-Dihydro-6-oxo-(2E-3-oxo-3-benzylaminoprop-1-enyl)-2H-pyran-3-yl)-(2E,4E)-4,6-dimethyldodecadienoate], above 9000 nM.
The value for `C/C=C/[C@@H]1OC(=O)C=C[C@@H]1OC(=O)Cc1ccc(-c2ccccc2)cc1` [Example 5g, ((2S,3S)-3,6-Dihydro-6-oxo-(2E-prop-1-enyl-2H-pyran-3-yl))-4-biphenylacetate] was 13400 nM; that for `C/C=C/[C@@H]1OC(=O)C=C[C@H]1OC(=O)c1ccc(-c2ccccc2)cc1` [Example 1a, ((2S,3R)-3,6-Dihydro-6-oxo-(2E-prop-1-enyl-2H-pyran-3-yl))-4-biphenyl carboxylate] was above 7500 nM.
Take `C/C=C/[C@@H]1OC(=O)C=C[C@H]1NC(=O)c1cccc2c1-c1ccccc1C2=O` [Example 3b, ((2S,3R)-3,6-Dihydro-6-oxo-(2E-prop-1-enyl-2H-pyran-3-yl))-9-oxo-9H-fluorene-4-amide]: the IC50 is 10000 nM.
In turn, `C/C=C/[C@@H]1OC(=O)C=C[C@H]1OC(=O)c1cccc2c1C(=O)c1ccccc1-2` [Example 1c] gave an IC50 of 4000 nM.
For `C/C=C/[C@@H]1OC(=O)C=C[C@@H]1OC(=O)c1cccc2c1C(=O)c1ccccc1-2` [Example 5e, ((2S,3S)-3,6-Dihydro-6-oxo-(2E-prop-1-enyl-2H-pyran-3-yl))-9-oxo-9H-fluorene carboxylate] the value was 130 nM.
The value for `C/C=C/[C@@H]1OC(=O)C=C[C@@H]1OC(=O)/C=C/c1cccc(C)c1` [Example 5i, ((2S,3S)-3,6-Dihydro-6-oxo-(2E-prop-1-enyl-2H-pyran-3-yl))-3m-tolylacrylate] was 1000 nM.
For the compound `C/C=C/[C@@H]1OC(=O)C=C[C@@H]1OC(=O)c1ccc2c(c1)C(=O)c1ccccc1-2` [Example 5f, ((2S,3S)-3,6-Dihydro-6-oxo-(2E-prop-1-enyl-2H-pyran-3-yl))-9-oxo-9H-fluorene-2-carboxylate], half-maximal inhibition (IC50) required 1200 nM.
In turn, `C/C=C/[C@@H]1OC(=O)C=C[C@@H]1OC(=O)Cc1ccccc1` [Example 5h, ((2S,3S)-3,6-Dihydro-6-oxo-(2E-prop-1-enyl-2H-pyran-3-yl))phenylacetate] had an IC50 of 1400 nM.
For `C/C=C/[C@@H]1OC(=O)C=C[C@@H]1OC(=O)/C=C/c1ccco1` [Example 5a, ((2S,3S)-3,6-dihydro-6-oxo-(2E-prop-1-enyl-2H-yran-3-yl))-3-(2-furfuryl)acrylate] the value was 1200 nM.
